{"source": "patent US20250120916A1", "about": "“NANOTECHNOLOGY FOR CHEMOTHERA0PY DRUG CAPTURE” (The Regents of the University of California, priority 2021, published 2025)", "key": {"[1]": {"experiment": "Biodetoxification test, NIH/3T3 fibroblasts", "conditions": "mouse, NIH/3T3 fibroblasts"}, "[2]": {"test_system": "NIH/3T3 fibroblasts", "experiment": "Biodetoxification test, NIH/3T3 fibroblasts", "conditions": "NIH/3T3, untreated DOX 400 μg mL−1 media, 8 h"}, "[3]": {"test_system": "HUVECs", "experiment": "Biodetoxification test, HUVECs", "conditions": "untreated DOX 400 μg mL−1 media, 8 h"}, "[4]": {"experiment": "Biodetoxification test, HUVECs", "conditions": "human"}, "[5]": {"experiment": "Hydrodynamic size (DLS) and ζ-potential measurements", "type": "physicochemical", "method": "Hydrodynamic size and ζ-potential measurements: A Zetasizer Nano ZS from Malvern Panalytical Ltd was used to conduct dynamic light scattering (DLS) and electrokinetic measurements in folded capillary cells (DTS1070). Samples were prepared with an ENCC concentration of 0.1 mg mL−1 in 1 mg mL−1 of NaCl solution A final DOX concentration of 0.03 mg mL−1 was used to have an ˜1:10 molar ratio of DOX to the carboxylate of ENCC For ζ-potential measurements on DOX, the concentration was lowered to 0.003 mg mL−1. At least three measurements were taken for each DLS experiment, with 11 runs per measurement. For the ζ-potential tests, the number of measurements was at least three, with up to 100 runs per measurement."}, "[6]": {"test_system": "fibroblast", "conditions": "literature (75); cited from earlier work"}, "[7]": {"test_system": "red blood cells (RBCs) in human whole blood", "experiment": "Hemolysis assessment (ASTM E2524-08)", "type": "cell-based", "method": "Hemolysis assessment: The hemolytic activity of ENCC was measured via exposing human whole blood, withdrawn from 3 healthy volunteer donors by another lab, to varying concentrations of ENCC and measuring the concentration of released hemoglobin in plasma according to the American Society for Testing and Materials (ASTM) E2524-08 (2013) standard analysis of hemolytic activity of nanoparticles.(61) A colorimetric technique was used to measure the oxidation of […] (Drabkin's reagent) at an absorbance of 540 nm A calibration curve was obtained using […] of pure human hemoglobin to quantify the concentration of released hemoglobin in heparinized human whole blood exposed to ENCC The blood samples were diluted in DPBS to have 10±2 mg of hemoglobin per mL. ENCC was added to a microcentrifuge tube, followed by the addition of DPBS (800 μL) and the diluted blood (100 μL). After gently mixing the samples, they were incubated for 3 h±15 min at 37° C. and centrifuged for 15 min at 14000 rpm and ambient temperature. […] A microplate reader (540 nm, BioTek UV/vis Synnergy 2, USA) was then used to measure the relative absorbance of each well against the reagent blank to correct the background (blood-free samples) absorbance. The hemolysis percentage was measured based on the hemoglobin concentration in the samples divided by the total blood hemoglobin (˜10 mg mL−1). […]"}, "[8]": {"conditions": "DOX:COO− ~0.1, ENCC 100 μg mL−1"}}, "note": "Counter-ions that a name gives are not always drawn. Like-named read-outs stand apart in the source and are kept apart here.", "data": [{"compound": "COc1cccc2c1C(=O)c1c(O)c3c(c(O)c1C2=O)C[C@@](O)(C(=O)CO)C[C@@H]3O[C@H]1C[C@H](N)[C@H](O)[C@H](C)O1", "note": "[DOX, Doxorubicin hydrochloride]", "values": [{"measurement": "viability at 8 h, 400 μg mL−1", "setting": "[1]", "result": "< 10", "unit": "%"}, {"measurement": "decrease in metabolic activity (PrestoBlue)", "setting": "[2]", "result": "more than 2000%"}, {"measurement": "decrease in metabolic activity (PrestoBlue)", "setting": "[3]", "result": "more than 2000%"}, {"measurement": "viability at 8 h, 400 μg mL−1", "setting": "[4]", "result": "~35", "unit": "%"}, {"measurement": "hydrodynamic size after ENCC addition", "setting": "[5]; [8]", "result": "~350", "unit": "nm"}, {"measurement": "ζ-potential after ENCC addition", "setting": "[5]; [8]", "result": "~−32", "unit": "mV"}, {"measurement": "hydrodynamic size of DOX aggregates", "setting": "[5]; before ENCC addition", "result": "~66", "unit": "nm"}, {"measurement": "ζ-potential of DOX aggregates", "setting": "[5]; before ENCC addition", "result": "~+24 mV"}, {"measurement": "DOX concentration that induces fibroblast cellular toxicity", "setting": "[6]", "result": "above 5×10^−5 M"}]}, {"compound": "Triton X-100", "values": [{"measurement": "hemolysis percentage (controls)", "setting": "[7]; Triton X-100 1% v/v positive control, PEG 4.4% v/v negative control", "result": "> 95", "unit": "%"}]}, {"compound": "polyethylene glycol [PEG]", "values": [{"measurement": "hemolysis percentage (controls)", "setting": "[7]", "result": "does not induce significant hemolysis"}]}]}
